Columns and labels:
[1] = tested on: subjects who had NAFLD in 31 IU/L or more of ALT
[2] = tested on: Mice (C57/B6J) fed with high-fat food
Description: Mice (C57/B6J, 8 weeks old male) were divided into 4 groups (5 animals each), and the first group (DB) was freely fed with ordinary food (Certified Diet “MF” manufactured by Oriental Yeast Co., ltd.). The second group (HFD) was freely fed with high-fat food (High Fat Diet 32, manufactured by CLEA Japan, Inc.), […].
When the mouse was 20 weeks old, the body weight, the liver weight, the serum aspartate aminotransferase (AST), the alanine aminotransferase (ALT), the serum triglyceride (TG), the free fatty acid value (FFA) and the total cholesterol value (T-cho) were measured.

[3] = HFD6 and HFD60 groups in comparison to the HFD group, 20 weeks old
[4] = high-fat food mice, glutathione 6 or 60 mg/kg/day in water, 20 weeks old

## N[C@@H](CCC(=O)N[C@@H](CS)C(=O)NCC(=O)O)C(=O)O [glutathione]
[1]; Case IDs 10 to 16, 300 mg per day oral
  Effect of the present invention (ALT criterion): not affected
[1]; after treatment, oral glutathione 300 mg per day, one value per subject (Case ID)
  FibroScan (after treatment) CAP: 280 dBe
[2]; [3]
  FFA (free fatty acid value): significant decrease
  T-cho (total cholesterol value): significant decrease
  TG (triglyceride value): significant decrease
  serum ALT: significant decrease
  serum AST: significant decrease
[2]; high-fat food mice, glutathione 6 or 60 mg/kg/day in water
  deposition of fat on the liver by high-fat food: suppressed
[2]; [4]
  liver weight: decreased dependently on the concentration
  ratio of liver weight/body weight: decrease of the body weight ratio was also recognized

Source: patent publication US20200289605A1, “COMPOSITION FOR IMPROVING OR PREVENTING NONALCOHOLIC FATTY LIVER” (KOHJIN LIFE SCIENCES CO., LTD., priority 2015, published 2020)
